Results as given in patent publication US12685732B2, “Composition for improving, preventing or treating muscular disorders including sulfonamide-based compounds” (The Industry & Academic Cooperation in Chungnam National …, priority 2022, dated 2026).

Tests used:
[1] = test system: CTX-induced sarcopenia mouse model; test: Rota Rod balance ability in CTX-induced sarcopenia mouse model; format: in vivo; details: oral 50, 100, 500 mg/kg once/day 10 days; days 4, 9, 14; vs (+)PBS group
Method: (§1) Specifically, the Rota Rod was measured before CTX injection, and after CTX was injected (day 0), the drug was orally administered once/day for 10 days, and on days 4, 9, and 14, the Rota Rod was measured, respectively.

[2] = test system: CTX-induced sarcopenia mouse model; test: Muscle recovery by muscle type (myosin I, IIa, IIb antibody staining) in CTX-induced sarcopenia mouse model; format: in vivo; details: 4 μM oral
Method: (§2) In order to construct a CTX-induced sarcopenia mouse model, cardiotoxin (LATOXAN, Portes-les-Valence, France) was dissolved at 1 mg/ml in PBS to make a high-concentration stock solution. To apply to the mice, the stock solution was diluted again in PBS at a final concentration of 0.03 mg/ml and used, and intramuscularly injected into both thigh muscles of the mouse using a 1 ml syringe (24 G) to construct a sarcopenia mouse model.

[3] = test system: C2C12-PHF20/YY1-promoter-GFP cell line; test: HTS system: GFP (green luminescence) in PHF20-overexpressing myoblasts carrying YY1 promoter-GFP; format: cell-based, mouse; details: 1 nM, 10 nM, 100 nM, 1 μM or 10 μM
Excerpt: C2C12 myoblasts, which were stable cells in which PHF20 was overexpressed, were transformed with a plasmid coexisting with a YY1 promoter and GFP, which inhibited muscle differentiation, to prepare a stable cell line. The degree of GFP signal suppression was quantified and measured, and the degree of muscle differentiation was used as a quantitative measurement index (FIG. 1).
Specifically, the C2C12-PHF20/YY1-promoter-GFP cell line according to Example 1 was dispensed in a 96-well plate at 0.5×10^5, cultured for 24 hours, and cells in a 70% confluent state were treated with 250 ng/ml of doxycycline for 24 hours, and then treated with each compound at a final concentration of 10 μM.
For fluorescence intensity, C2C12-PHF20/YY1-promoter-GFP cells were dispensed at 4×10^5 in a 6-well culture plate and cultured for 24 hours. […] Thereafter, the degree of green luminescence was confirmed using GloMax microplate readers explorer (Promega, Madison, Wisconsin, USA).

[4] = test system: CTX-induced sarcopenia mouse model; test: Muscle regeneration by H&E staining in CTX-induced sarcopenia mouse model; format: in vivo; details: 4 μM oral, 24 h after CTX; tissue on days 3, 6, 10; vs non-administered control
Method: as §2
Specifically, for mouse muscle tissue immunostaining, the muscle tissues of a comparative group and a sulfamethazine-treated group were fixed in 4% paraformaldehyde, washed, and fixed in paraffin. Tissues were cut to a thickness of about […], fixed to a slide, and then stained using an antibody for each muscle type.

[5] = Body weight in CTX-induced sarcopenia mouse model; format: in vivo; details: oral 50, 100, 500 mg/kg once/day 10 days, 14 days, except decrease in all groups on day 10 without diet supply
Method: as §1
For a total of 14 days, the body weights of the mice were measured, and any change in body weight was confirmed.
(§3) Specifically, the grip strength was measured before CTX injection, and after CTX was injected (day 0), the drug was orally administered once/day for 10 days, and on days 4, 9, and 14, the grip strength was measured, respectively.

C57BL/6J mice [6] = test: Single oral dose toxicity: liver pathology by H&E staining; format: in vivo, mouse; details: single oral 100, 500, 1000 mg/kg; male and female; day 14
Method: As in Example 7-1, mice with single oral administration were dissected on day 14 after administration, and histochemical toxicity was evaluated. The pathology of the liver was observed through H&E staining on the dissected liver tissue.

C57BL/6J mice [7] = test: Single oral dose toxicity: blood liver, heart and kidney toxicity markers; details: single oral 100, 500, 1000 mg/kg; male and female; serum day 14
Method: 7-week-old male and female C57BL/6J mice with the body weight of 20±3 g were obtained from DooYeol Biotech (Seoul, South Korea). The mice were bred under constant room temperature and 12 h night/day cycle for 1 week before the experiment, and the mice were fed with a standard rodent diet and were freely taken with water.
The collected blood was left at room temperature for 1 hour to be coagulated, and the serum was isolated by operating a centrifuge (13,000 rpm) for 20 minutes. Blood analysis was performed by dividing liver toxicity, heart toxicity, and kidney toxicity, and the analysis was conducted by requesting DooYeol Biotech (Seoul, Korea).

C57BL/6J mice [8] = test: Single oral dose toxicity: tissue weights at autopsy; format: in vivo, mouse; details: single oral 100, 500, 1000 mg/kg; male and female; day 14
Method: The body weights were measured before administration, and on 1 day, 3 days, 7 days, and 14 days after administration, and an autopsy was performed on day 14.
In the present disclosure, a single oral dose toxicity test refers to a test that qualitatively and quantitatively examines toxicity in a short period of time when a test substance was administered to test animals in a single dose (including divided doses within 24 hours).

[9] = test system: CTX-induced sarcopenia mouse model; test: Grip strength recovery in CTX-induced sarcopenia mouse model; format: in vivo; details: oral 50, 100, 500 mg/kg once/day 10 days, days 4, 9, 14
Method: as §3

Substance: sulfamethazine
- balance ability of the Rota Rod [1]: the higher the dose of sulfamethazine, the higher the balance ability of the Rota Rod
- expression of myosin I ([2]; day 6): expression of blue-stained myosin I was increased
- muscle image by myosin type staining ([2]; day 10): recovered similarly to that of a normal control group on day 0
- expression of myosin IIa and myosin IIb ([2]; vs control group): increase in expressions of green myosin IIa and red myosin IIb
- intensity of green fluorescence by concentration [3]: the higher the treated concentration of sulfamethazine, the weaker the intensity of fluorescence
- degree of muscle differentiation / regeneration by H&E staining [4]: the muscle was regenerated compared to the control group
- body weight ([5]; Rota Rod study): no change in body weight was observed
- body weight ([5]; grip strength study): no change in body weight was observed
- liver pathology (H&E) (C57BL/6J mice [6]): no specific pathological findings were observed
- blood liver toxicity, heart toxicity and kidney toxicity markers (C57BL/6J mice [7]): no specific phenomena related to liver toxicity, heart toxicity, and kidney toxicity
- tissue weight (C57BL/6J mice [8]): no singularity in tissue weight
- grip strength, all four paws [9]: grip strength was increased in a sulfamethazine concentration-dependent manner
- grip strength, hind legs (2 paws) ([9]; vs (+)PBS group): grip strength of mice increased as the dose of sulfamethazine increased
